Source: EP2926812A1, “USE OF ARTEMETHER IN PREPARATION OF DRUG FOR TREATING LEUKEMIA” (Kunming Pharmaceutical Corp., priority 2012, dated 2014)

Assays:
[1] = tested on: K562 nude mice transplanted tumor; experiment: Apoptosis of tumor cells from tumor-bearing animals (pre-trial); type: in vivo, Balb/c nude mice; conditions: 21 doses
Description: (§1) 3.1.2 Nude mice were subjected to 3.0Gy whole-body irradiation, after subcutaneous inoculation of the K562 cells. One week after inoculation, nude mice with visible tumors were divided into the following 4 groups each consisting of 6 animals. The following dosages were administered for 3 continuous weeks, with 7 doses per week, a total of 21 doses.
The effect of the drug on the apoptosis of the tumor cell: from the result of pre-trial (table 3), it appears that the apoptosis ratio in control group is higher than that in the treated group. In fact, this is because the tutor of control group grows more rapidly, has a larger volume, and thus a more significant necrosis. […] However, cells which are not inhibited by the drug form a tumor mass that are not different much from the tumor mass in control group. Therefore, in a mechanism study, tumor cells in vivo should not be used, and an in vitro test is preferred.

[2] = mouse, in vivo
Description: (§2) Nude mice were subjected to a 3.0Gy whole-body irradiation, after subcutaneous inoculation of the K562 cells. One week after inoculation, nude mice with visible tumors were divided into the following 5 groups each consisting of 6 animals. The following dosages were administered for 3 continuous weeks, with 5 doses per week, a total of 15 doses.
(§3) Nude mice were subjected to a 3.0Gy whole-body irradiation, after subcutaneous inoculation of the K562 cells. One week after inoculation, nude mice with visible tumors were divided into the following 5 groups each consisting of 6 nude mice.
(§4) High dosage group: intraperitoneal injection of artemether at 100 ml/kg. The dosage was administered for 3 weeks, with 5 doses per week, a total of 15 doses.
(§5) Middle dosage group: intraperitoneal injection of artemether at 60 ml/kg. The dosage was administered for 3 weeks, with 7 doses per week, a total of 21 doses.
(§6) Low dosage group: intraperitoneal injection of artemether at 40 ml/kg. The dosage was administered for 3 weeks, with 7 doses per week, a total of 21 doses.

[3] = tested on: K562 nude mice transplanted tumor; experiment: Inhibition of growth of K562 nude mice transplanted tumor (pre-trial, experiment 1, experiment 2); type: in vivo, Balb/c nude mice; conditions: for tumor sizes: n=6
From the text: 2.4 K562 cell: primary K562 cell is derived from bone marrow of a patient having leukemia, introduced by Blood Research Institute from abroad, stored and passaged in Pathologic Cell Bank; cultured in RPMI1640 medium (comprising 10% fetal bovine serum).
2.6 experimental animal: Balb/c nude mice, 4~5 weeks old, weight: 17~20 g, gender: half male and half female. Experimental Animal Institute of the Chinese Academy of Medical Sciences, certification number of experimental animals: SCXK (JING) 2005-0013.
3.1.1 Balb/c nude mice were subjected to 3.0Gy whole-body irradiation, after subcutaneous inoculation of primary K562 cells. About 4 weeks after inoculation, tumor masses in growing were removed and transplanted into […], and this process was repeated for 2~3 passages to establish high oncogenic K562 cell line.
as §1
Model control group: intraperitoneal injection of 20% aqueous solution of excipient at 0.2 ml/animal.
High dosage group: intraperitoneal injection of artemether at 150 ml/kg.
Middle dosage group: intraperitoneal injection of artemether at 100 ml/kg.
Low dosage group: intraperitoneal injection of artemether at 50 ml/kg.
as §2
Positive control group: intraperitoneal injection of cyclophosphamide at 10 ml/kg.
High dosage group: intraperitoneal injection of artemether at 100 ml/kg.
Middle dosage group: intraperitoneal injection of artemether at 60 ml/kg.
Low dosage group: intraperitoneal injection of artemether at 40 ml/kg.
as §3
Model control group: intraperitoneal injection of 20% solution of excipient at 0.2ml/animal. The dosage was administered for 3 weeks, with 7 doses per week, a total of 21 doses.
Positive control group: intraperitoneal injection of cyclophosphamide at 10 ml/kg. The dosage was administered for 3 weeks, with 7 doses per week, a total of 21 doses.
as §4, §5, §6

`CO[C@H]1O[C@@H]2O[C@@]3(C)CC[C@H]4[C@H](C)CC[C@@H]([C@H]1C)[C@@]24OO3` [artemether] showed an apoptosis ratio ([1]; High dosage group: artemether 150 intraperitoneal) of 2.63%, an apoptosis ratio ([1]; Low dosage group: artemether 50 intraperitoneal) of 1.37±0.47% and an apoptosis ratio ([1]; Middle dosage group: artemether 100 intraperitoneal) of 2.04 ±1.58%. The toxicity [2] was “without toxicity”, the tumor sizes ([3]; experiment 1, High dosage group: artemether 100 ml/kg intraperitoneal, 15 doses in 3 weeks, 1 week after inoculation) was 55.6±11.4 mm3 and the tumor sizes ([3]; experiment 1, High dosage group: artemether 100 ml/kg intraperitoneal, 15 doses in 3 weeks, 2 weeks after inoculation) was 72.9±70.8 mm3. The tumor sizes ([3]; experiment 1, High dosage group: artemether 100 ml/kg intraperitoneal, 15 doses in 3 weeks, 3 weeks after inoculation) was 307.9±223.2 mm3, the tumor sizes ([3]; experiment 1, High dosage group: artemether 100 ml/kg intraperitoneal, 15 doses in 3 weeks, 4 weeks after inoculation) was 489.2±199.9 mm3 and the tumor mass ([3]; experiment 1, High dosage group: artemether 100 ml/kg intraperitoneal, 15 doses, 4 weeks after inoculation) was 340.0 ± 237.6 mg. The tumor sizes ([3]; experiment 1, Low dosage group: artemether 40 ml/kg intraperitoneal, 15 doses in 3 weeks, 1 week after inoculation) was 42.0±9.0 mm3, the tumor sizes ([3]; experiment 1, Low dosage group: artemether 40 ml/kg intraperitoneal, 15 doses in 3 weeks, 2 weeks after inoculation) was 148.4±75.6 mm3 and the tumor sizes ([3]; experiment 1, Low dosage group: artemether 40 ml/kg intraperitoneal, 15 doses in 3 weeks, 3 weeks after inoculation) was 432.6±332.5 mm3. For the same compound, the tumor sizes ([3]; experiment 1, Low dosage group: artemether 40 ml/kg intraperitoneal, 15 doses in 3 weeks, 4 weeks after inoculation) was 1127.7±142.8 mm3, the tumor mass ([3]; experiment 1, Low dosage group: artemether 40 ml/kg intraperitoneal, 15 doses, 4 weeks after inoculation) was 1135.0 ± 457.2 mg and the tumor sizes ([3]; experiment 1, Middle dosage group: artemether 60 ml/kg intraperitoneal, 15 doses in 3 weeks, 1 week after inoculation) was 51.3±4.5 mm3. It also gave a tumor sizes ([3]; experiment 1, Middle dosage group: artemether 60 ml/kg intraperitoneal, 15 doses in 3 weeks, 2 weeks after inoculation) of 127.5±22.3 mm3, a tumor sizes ([3]; experiment 1, Middle dosage group: artemether 60 ml/kg intraperitoneal, 15 doses in 3 weeks, 3 weeks after inoculation) of 376.7±135.8 mm3 and a tumor sizes ([3]; experiment 1, Middle dosage group: artemether 60 ml/kg intraperitoneal, 15 doses in 3 weeks, 4 weeks after inoculation) of 1035.6±248.5 mm3. For the same compound, the tumor mass ([3]; experiment 1, Middle dosage group: artemether 60 ml/kg intraperitoneal, 15 doses, 4 weeks after inoculation) was 736.7 ± 247.6 mg, the tumor sizes ([3]; experiment 2, High dosage group: artemether 100 ml/kg intraperitoneal, 15 doses in 3 weeks, 1 week after inoculation) was 33.9±14.4 mm3 and the tumor sizes ([3]; experiment 2, High dosage group: artemether 100 ml/kg intraperitoneal, 15 doses in 3 weeks, 2 weeks after inoculation) was 75.5±27.2 mm3. It also gave a tumor sizes ([3]; experiment 2, High dosage group: artemether 100 ml/kg intraperitoneal, 15 doses in 3 weeks, 3 weeks after inoculation) of 137.1±101.6 mm3, a tumor sizes ([3]; experiment 2, High dosage group: artemether 100 ml/kg intraperitoneal, 15 doses in 3 weeks, 4 weeks after inoculation) of 291.7±191.5 mm3 and a tumor mass ([3]; experiment 2, High dosage group: artemether 100 ml/kg intraperitoneal, 15 doses, 4 weeks after inoculation) of 230 ± 1153.4 mg. The tumor sizes ([3]; experiment 2, Low dosage group: artemether 40 ml/kg intraperitoneal, 21 doses in 3 weeks, 1 week after inoculation) was 26.7±5.9 mm3, the tumor sizes ([3]; experiment 2, Low dosage group: artemether 40 ml/kg intraperitoneal, 21 doses in 3 weeks, 2 weeks after inoculation) was 203.7±127.3 mm3 and the tumor sizes ([3]; experiment 2, Low dosage group: artemether 40 ml/kg intraperitoneal, 21 doses in 3 weeks, 3 weeks after inoculation) was 297.4±86.6 mm3. It also gave a tumor sizes ([3]; experiment 2, Low dosage group: artemether 40 ml/kg intraperitoneal, 21 doses in 3 weeks, 4 weeks after inoculation) of 729.2±272.8 mm3, a tumor mass ([3]; experiment 2, Low dosage group: artemether 40 ml/kg intraperitoneal, 21 doses, 4 weeks after inoculation) of 645 ± 314.7 mg and a tumor sizes ([3]; experiment 2, Middle dosage group: artemether 60 ml/kg intraperitoneal, 21 doses in 3 weeks, 1 week after inoculation) of 22.7±7.4 mm3. It also gave a tumor sizes ([3]; experiment 2, Middle dosage group: artemether 60 ml/kg intraperitoneal, 21 doses in 3 weeks, 2 weeks after inoculation) of 118.4±129.0 mm3, a tumor sizes ([3]; experiment 2, Middle dosage group: artemether 60 ml/kg intraperitoneal, 21 doses in 3 weeks, 3 weeks after inoculation) of 201.2±98.9 mm3 and a tumor sizes ([3]; experiment 2, Middle dosage group: artemether 60 ml/kg intraperitoneal, 21 doses in 3 weeks, 4 weeks after inoculation) of 746.6±393.7 mm3. For the same compound, the tumor mass ([3]; experiment 2, Middle dosage group: artemether 60 ml/kg intraperitoneal, 21 doses, 4 weeks after inoculation) was 630 ± 418.9 mg, the inhibition ratio ([3]; of tumor mass, experiment 1, Low dosage group: artemether 40 ml/kg intraperitoneal, 15 doses, 4 weeks after inoculation, listed as artemether lyophilized powder for injection) was “no significant inhibition” and the inhibition ratio ([3]; of tumor mass, experiment 1, Middle dosage group: artemether 60 ml/kg intraperitoneal, 15 doses, 4 weeks after inoculation, listed as artemether lyophilized powder for injection) was 31%. The inhibition ratio ([3]; of tumor mass, experiment 2, Low dosage group: artemether 40 ml/kg intraperitoneal, 21 doses, 4 weeks after inoculation, listed as artemether lyophilized powder for injection) was 55%, the inhibition ratio ([3]; of tumor mass, experiment 2, Middle dosage group: artemether 60 ml/kg intraperitoneal, 21 doses, 4 weeks after inoculation, listed as artemether lyophilized powder for injection) was 56% and the inhibition ratio ([3]; of tumor mass, pre-trial, Low dosage group: artemether 50 ml/kg intraperitoneal, 21 doses, 4 weeks after administration) was 41.1%. For the same compound, the inhibition ratio ([3]; of tumor mass, pre-trial, Middle dosage group: artemether 100 ml/kg intraperitoneal, 21 doses, 4 weeks after administration) was 64.9%, the inhibition ratio ([3]; of tumor volume, pre-trial, Low dosage group: artemether 50 ml/kg intraperitoneal, 21 doses, 3 weeks after administration) was 43.6% and the inhibition ratio ([3]; of tumor volume, pre-trial, Low dosage group: artemether 50 ml/kg intraperitoneal, 21 doses, 4 weeks after administration) was 44.6%. The inhibition ratio ([3]; of tumor volume, pre-trial, Middle dosage group: artemether 100 ml/kg intraperitoneal, 21 doses, 3 weeks after administration) was 70.3%, the inhibition ratio ([3]; of tumor volume, pre-trial, Middle dosage group: artemether 100 ml/kg intraperitoneal, 21 doses, 4 weeks after administration) was 69.1% and the tumor volume ([3]; pre-trial, High dosage group: artemether 150 ml/kg intraperitoneal, 21 doses in 3 weeks, 1 week after administration) was 55.3 mm3. It also gave a tumor volume ([3]; pre-trial, High dosage group: artemether 150 ml/kg intraperitoneal, 21 doses in 3 weeks, 2 weeks after administration) of 136.8 mm3, a tumor volume ([3]; pre-trial, High dosage group: artemether 150 ml/kg intraperitoneal, 21 doses in 3 weeks, 3 weeks after administration) of 454.1 mm3 and a tumor volume ([3]; pre-trial, High dosage group: artemether 150 ml/kg intraperitoneal, 21 doses in 3 weeks, 4 weeks after administration) of 663.1 mm3. It also gave a tumor mass ([3]; pre-trial, High dosage group: artemether 150 ml/kg intraperitoneal, 21 doses, 4 weeks after administration) of 590 mg, a tumor volume ([3]; pre-trial, Low dosage group: artemether 50 ml/kg intraperitoneal, 21 doses in 3 weeks, 1 week after administration) of 174.9±74.7 mm3 and a tumor volume ([3]; pre-trial, Low dosage group: artemether 50 ml/kg intraperitoneal, 21 doses in 3 weeks, 2 weeks after administration) of 535.5±253.42 mm3. For the same compound, the tumor volume ([3]; pre-trial, Low dosage group: artemether 50 ml/kg intraperitoneal, 21 doses in 3 weeks, 3 weeks after administration) was 997.1±327.71 mm3, the tumor volume ([3]; pre-trial, Low dosage group: artemether 50 ml/kg intraperitoneal, 21 doses in 3 weeks, 4 weeks after administration) was 1672.0 ± 331.0 mm3 and the tumor mass ([3]; pre-trial, Low dosage group: artemether 50 ml/kg intraperitoneal, 21 doses, 4 weeks after administration) was 1436 ± 281.3 mg. For the same compound, the tumor volume ([3]; pre-trial, Middle dosage group: artemether 100 ml/kg intraperitoneal, 21 doses in 3 weeks, 1 week after administration) was 93.6±43.6 mm3, the tumor volume ([3]; pre-trial, Middle dosage group: artemether 100 ml/kg intraperitoneal, 21 doses in 3 weeks, 2 weeks after administration) was 219.9 ± 110.83 mm3 and the tumor volume ([3]; pre-trial, Middle dosage group: artemether 100 ml/kg intraperitoneal, 21 doses in 3 weeks, 3 weeks after administration) was 524.6±265.57 mm3. It also gave a tumor volume ([3]; pre-trial, Middle dosage group: artemether 100 ml/kg intraperitoneal, 21 doses in 3 weeks, 4 weeks after administration) of 931.8±307.9 mm3 and a tumor mass ([3]; pre-trial, Middle dosage group: artemether 100 ml/kg intraperitoneal, 21 doses, 4 weeks after administration) of 857 ± 574.4 mg.
